{"source": "patent US20200037609A1", "about": "“HERBICIDAL COMPOSITIONS AND METHODS OF USE THEREOF” (The Regents of the University of California, priority 2017, published 2020)", "key": {"[1]": {"biological_target": "T1, Arabidopsis thaliana housekeeping DHAD (pDHAD) (Arabidopsis thaliana, UniProt Q9LIR4)", "T1 construct": "[…]; 6xHis (N); made in house; host or cells: E. coli BL21 (DE3)", "T1 sequence (Q9LIR4 35-608)": "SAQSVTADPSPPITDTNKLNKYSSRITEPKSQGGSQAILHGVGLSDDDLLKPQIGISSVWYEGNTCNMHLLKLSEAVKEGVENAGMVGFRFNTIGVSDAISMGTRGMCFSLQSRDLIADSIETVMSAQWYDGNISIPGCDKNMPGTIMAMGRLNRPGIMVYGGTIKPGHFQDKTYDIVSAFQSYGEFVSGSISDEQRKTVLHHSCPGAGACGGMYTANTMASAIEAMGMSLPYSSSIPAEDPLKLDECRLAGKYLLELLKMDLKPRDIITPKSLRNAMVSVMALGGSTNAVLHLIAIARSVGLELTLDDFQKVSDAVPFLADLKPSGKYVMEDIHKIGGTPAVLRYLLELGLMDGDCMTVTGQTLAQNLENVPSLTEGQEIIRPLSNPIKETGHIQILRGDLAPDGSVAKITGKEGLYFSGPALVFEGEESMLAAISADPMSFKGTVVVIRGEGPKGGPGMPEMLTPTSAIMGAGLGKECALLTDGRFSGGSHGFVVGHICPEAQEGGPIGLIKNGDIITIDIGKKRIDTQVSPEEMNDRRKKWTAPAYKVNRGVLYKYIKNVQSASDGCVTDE", "assay": "DHAD enzymatic inhibition assay (phenylhydrazine derivatization, LC-MS)", "type": "biochemical", "experimental": "Enzymatic activity reactions were carried out in […] volumes containing 50 mM storage buffer, 10 mM (±)-Sodium 2,3-dihydroxyisovalerate hydrate (DHAD substrate) and 1 μM purified DHAD enzyme. After incubation for 30 minutes at 30° C., the reaction was stopped by adding an equal volume of ethanol. 1/10 volumes of 100 mM phenylhydrozine was added at room temperature for 30 minutes to derivatize the DHAD-synthesized molecule (3-methyl-2-oxo-butanoic acid) into a detectable derivatization product (DDP). See FIG. 5A for an overview of reactions.\nInhibition assays were carried out according to the reactions described above. First, phenylhydrozine was added to 3-methyl-2-oxo-butanoic acid to validate the derivatization reaction. Next, DHAD substrate was incubated with 1 μM purified DHAD enzyme from A. thaliana (with or without DMSO) then derivatized with phenylhydrozine to validate the activity of the purified DHAD enzyme. Finally, DHAD substrate was incubated with 1 μM purified DHAD enzyme from A. thaliana and 1 mM aspterric acid in DMSO then derivatized with phenylhydrozine to determine if DHAD was inhibited by aspterric acid. 20 μL of the reaction mixture was subject to LC-MS analysis, and DDP was detected by UV absorption at 350 nm. The area of the peak that corresponded to DDP was used to quantify the amount of (±)-Sodium 2,3-dihydroxyisovalerate hydrate that was converted into DDP.\nInhibition assays were carried out according to the reactions described above by incubating purified DHAD enzymes (either the housekeeping DHAD from Aspergillus terreus, the housekeeping DHAD from Arabidopsis thaliana, or AstD from Aspergillus terreus) with aspterric acid at various concentrations. For AstD, up to 8 mM of aspterric acid was tested. […] The half maximal inhibitory concentration (IC50) and the effect of aspterric acid on the enzyme kinetics of each purified DHAD enzyme was calculated based on the initial reaction rates observed in the inhibition assays.\nBiochemical assay of DHADs. […] The area of the HPLC peak with UV absorption at 350 nm was used to quantify the amount of 6. […]"}, "[2]": {"system": "tomato seedlings (Solanum lycopersicum)", "assay": "Agar-based plant growth inhibition assay on MS media", "type": "in vivo", "settings": "50 μM aspterric acid", "experimental": "Sterile tomato seedlings were plated on MS media containing 50 μM aspterric acid and 1% DMSO (to increase the solubility of aspterric acid) or on MS media containing 50 μM glyphosate on day 0. MS media containing only 1% DMSO was used as a control. Growth was assessed on day 3 and day 7.\nGrowth inhibition assay of plants on plates or in the tubes. MS (2.16 g/L Murashige and Skoog basal medium, 8 g/L sucrose, 8 g/L agar) media was used to test the growth inhibition of AA on A. thaliana, Solanum lycopersicum, and Zea mays. A. thaliana, S. lycopersicum, G. max and Z. mays were grown under long day condition (16/8 h light/dark) using cool-white fluorescence bulbs as the light resource at 23° C. AA was dissolved in ethanol and added to the media before inoculating strains or growing plants. The media of control treatment contains the same amount of ethanol, but without AA."}, "[3]": {"system": "glufosinate resistant A. thaliana", "assay": "Plant growth inhibition assay by spraying (250 μM AA in Finale + ethanol)", "type": "in vivo, Arabidopsis thaliana", "settings": "glufosinate resistant plants without astD, listed as AA", "experimental": "Plant growth inhibition assay by spraying. AA was firstly dissolved in ethanol and then added to solvent (0.06 g/L Finale® Bayer Inc.+20 g/L EtOH). The control plants were treated with solvent containing ethanol only. A. thaliana that are resistant to glufosinate (containing the bar gene) were grown under long day conditions (16/8 h light/dark) using cool-white fluorescence bulbs as the light resource at 23° C. Spraying treatments began when the seeds germinated, and was repeated once every two days with approximately 0.4 mL AA solution per time per pot."}, "[4]": {"system": "Arabidopsis thaliana Col-0 flowers", "assay": "Cross experiment, AA as chemical hybridization agent", "type": "in vivo", "settings": "250 μM AA; for offspring obtained: listed as AA", "experimental": "Flowers of Arabidopsis thaliana Col-0 plants were treated with aspterric acid. The treated flowers that were missing all six fertile stamens were selected as the female parent in a cross with a male parent of known genetic identity. Non-treated Arabidopsis plants containing a BASTA resistant gene were used as male parent to donate pollen to the plants where the flowers were missing all six fertile stamens. 2-week old F1 progeny resulting from the cross were treated with Finale (11.3% Glufosinate-ammonium) at a 1:2000 dilution.\nTo make male sterile A. thaliana, AA was added to chemical hybridization agent (CHA) formulation (250 μM AA, 2% ethanol, 0.1% Tween-80, 1% corn oil in water), which has less inhibition effect on the growth of A. thaliana. Flowers of the AA treated Col-0 were selected as the female parent. […] 2-week old F1 progeny resulting from the cross were treated by Finale (11.3% glufosinate-ammonium) at 1:2000 dilution."}, "[5]": {"system": "pollen development in Arabidopsis thaliana", "settings": "literature, cited from earlier work"}, "[6]": {"settings": "female AA treated wild type x male un-treated glufosinate resistant plant"}}, "note": "Entries after “also recorded” stand apart in the source; their conditions may differ. Like-named read-outs stand apart in the source and are kept apart here.", "data": [{"compound": "CC(C)=C1CC[C@]23CO[C@H](C2)[C@@](O)(C(=O)O)CC[C@@H]13", "note": "[aspterric acid]", "values": [{"measurement": "pDHAD activity in presence of AA", "setting": "[1]; 10 μM AA", "result": "abolished pDHAD activity"}, {"measurement": "DHAD enzymatic activity in presence of aspterric acid", "setting": "[1]; 1 mM aspterric acid, 1 μM enzyme", "result": "completely inhibited"}, {"measurement": "mode of inhibition of pDHAD", "setting": "[1]; kinetic analyses", "result": "competitive inhibitor"}, {"measurement": "growth of tomato (Solanum lycopersicum) on MS media", "setting": "[2]", "result": "significant vegetative growth inhibition"}, {"measurement": "growth of tomato (Solanum lycopersicum) on MS media", "setting": "[2]; listed as AA", "result": "effective inhibitor of root development and plant growth"}, {"measurement": "plant growth after spray of AA in Finale", "setting": "[3]", "result": "severely inhibited plant growth; also recorded: strong growth inhibitory phenotype"}, {"measurement": "offspring obtained", "setting": "[4]; female AA treated wild type x male AA treated glufosinate resistant plant", "result": "No offspring was obtained and No"}, {"measurement": "inherit resistance", "setting": "[4]; [6]", "result": "Yes"}, {"measurement": "offspring obtained", "setting": "[4]; [6]", "result": "Offspring was obtained and Yes"}, {"measurement": "inhibition of pollen development in A. thaliana (previously reported)", "setting": "[5]", "result": "inhibit pollen development"}, {"measurement": "inhibition of pollen development in A. thaliana (previously reported)", "setting": "[5]; listed as AA", "result": "inhibitory activity towards pollen development"}]}]}
